Measured values published in patent US20240116985A1, “STAPLED PEPTIDES AND METHODS THEREOF” (priority 2020, published 2024).
Read-outs that look alike come from different tables or passages of the source.

What was measured:
[1] = target: T1, full-length beta-Catenin (Uniprot ID P35222) (Homo sapiens, UniProt P35222); experiment: Fluorescence polarization IC50 (beta-catenin / 5FAM-TCF4 10-53 competition); type: binding
T1 construct: 10 nM full-length beta-Catenin (Uniprot ID P35222)
T1 sequence (P35222 1-781): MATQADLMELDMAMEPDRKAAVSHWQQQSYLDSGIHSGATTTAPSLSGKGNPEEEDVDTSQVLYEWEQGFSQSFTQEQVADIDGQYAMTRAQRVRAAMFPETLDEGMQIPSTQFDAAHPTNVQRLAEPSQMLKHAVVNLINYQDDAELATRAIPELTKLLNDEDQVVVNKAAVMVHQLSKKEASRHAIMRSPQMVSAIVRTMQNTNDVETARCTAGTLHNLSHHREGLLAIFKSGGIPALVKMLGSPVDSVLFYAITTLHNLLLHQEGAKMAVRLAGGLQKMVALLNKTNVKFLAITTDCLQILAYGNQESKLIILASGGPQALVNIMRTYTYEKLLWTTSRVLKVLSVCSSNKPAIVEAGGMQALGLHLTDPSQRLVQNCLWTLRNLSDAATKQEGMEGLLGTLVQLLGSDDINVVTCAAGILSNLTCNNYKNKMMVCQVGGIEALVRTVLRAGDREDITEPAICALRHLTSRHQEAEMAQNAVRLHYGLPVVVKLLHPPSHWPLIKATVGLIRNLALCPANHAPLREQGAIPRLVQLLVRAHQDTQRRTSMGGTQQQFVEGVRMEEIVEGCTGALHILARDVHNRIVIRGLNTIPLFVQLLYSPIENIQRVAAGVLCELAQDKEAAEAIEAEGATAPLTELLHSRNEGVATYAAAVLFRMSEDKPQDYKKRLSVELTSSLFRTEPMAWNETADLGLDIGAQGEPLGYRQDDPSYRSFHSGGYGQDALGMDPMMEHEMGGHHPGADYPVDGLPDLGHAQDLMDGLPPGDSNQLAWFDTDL

CHI Log D procedure = type: physicochemical; conditions: for chromatographic logD: pH 7.4, CHI Log D; for CHI Log D: pH 7.4
[2] = target: T2, beta-catenin/TCF4 engagement (Homo sapiens, UniProt P35222); experiment: Nano-BRET target engagement assay (B-cat-Halo & TCF4-Luc in HEK293 cells); type: cell-based
T2 construct: expressed in transfected cells; host or cells: HEK293
T2 sequence (P35222 1-781): T1 sequence (P35222 1-781)

[3] = fluorescence polarization, beta-catenin, read-out: FP EC50
[4] = absolute IC50, read-out: NanoBRET Abs IC50

Row | SMILES | IC50 ([1]; read-out: beta-Catenin FP IC50) [µM] | chromatographic logD (CHI Log D procedure) | inhibition at 10 µM ([2]; HEK293, 10 uM, read-out: NanoBRET % inh @ 10 uM) [%] | IC50 [1, 3] [µM] | CHI Log D (CHI Log D procedure) | IC50 ([2]; read-out: NanoBRET Abs IC50) [µM] | IC50 [2, 4] [µM] | IC50 ([2]; read-out: NanoBRET IC50) [µM]
1 | CC(=O)N1CCC[C@]12CC=CCCCC1(CCCC=CCCCOC(=O)N3CC[C@@](C(=O)N[C@@H](Cc4ccsc4)C(=O)N[C@@H](Cc4c[nH]c5ccc(F)cc45)C(=O)N[C@@H](Cc4c[nH]cn4)C(N)=O)(C3)NC(=O)[C@H](CC(N)=O)NC(=O)[C@H](Cc3ccccc3)NC(=O)[C@H](C)NC(=O)[C@H](C)NC(=O)[C@H](CC(=O)O)NC(=O)[C@H](CC(=O)O)NC1=O)NC(=O)[C@H](CC(C)(C)C)NC(=O)[C@H](CC(=O)O)NC2=O (stereo partly drawn) [I-800, Ac-PL3-Asp-Npg-B5-Asp-Asp-Ala-Ala-Phe-Asn-PyrS2-3Thi-5FW-His-NH2] | 0.079 | 2 | 8.1 | – | – | – | – | –
2 | CC(=O)N1CCC[C@]12CC=CCCCC1(CCCC=CCCCCOC(=O)N3CC[C@@](C(=O)N[C@@H](Cc4ccsc4)C(=O)N[C@@H](Cc4csc5ccccc45)C(=O)N[C@@H](CCC(N)=O)C(=O)N[C@@H](C)C(N)=O)(C3)NC(=O)[C@H](CC(N)=O)NC(=O)[C@H](Cc3ccccc3)NC(=O)[C@H](C)NC(=O)[C@H](C)NC(=O)[C@H](CC(=O)O)NC(=O)[C@H](CC(=O)O)NC1=O)NC(=O)[C@H](CC(C)(C)C)NC(=O)[C@H](CC(=O)O)NC2=O (stereo partly drawn) [I-825, Ac-PL3-Asp-Npg-B5-Asp-Asp-Ala-Ala-Phe-Asn-PyrS3-3Thi-BztA-Gln-Ala-NH2] | 0.015 | – | – | 0.015 | 2.028 | 27.5 | – | –
3 | CC(=O)N1CCC[C@]12CC=CCCCC1(CCCC=CCCCCOC(=O)N3CC[C@@](C(=O)N[C@@H](Cc4ccsc4)C(=O)N[C@@H](Cc4csc5ccccc45)C(=O)N[C@@H](Cc4c[nH]cn4)C(=O)N[C@@H](C)C(N)=O)(C3)NC(=O)[C@H](CC(N)=O)NC(=O)[C@H](Cc3ccccc3)NC(=O)[C@H](C)NC(=O)[C@H](C)NC(=O)[C@H](CC(=O)O)NC(=O)[C@H](CC(=O)O)NC1=O)NC(=O)[C@H](CC(C)(C)C)NC(=O)[C@H](CC(=O)O)NC2=O (stereo partly drawn) [I-827, Ac-PL3-Asp-Npg-B5-Asp-Asp-Ala-Ala-Phe-Asn-PyrS3-3Thi-BztA-His-Ala-NH2] | 0.013 | – | – | 0.013 | 2.1 | > 20 | – | –
4 | CC(=O)N1CCC[C@]12CC=CCCCC1(CCCC=CCCCCOC(=O)N3CC[C@@](C(=O)N[C@@H](Cc4ccsc4)C(=O)N[C@@H](Cc4csc5ccccc45)C(=O)N[C@@H](CCC(N)=O)C(=O)N[C@H](C)C(N)=O)(C3)NC(=O)[C@H](CC(N)=O)NC(=O)[C@H](Cc3ccccc3)NC(=O)[C@H](C)NC(=O)[C@H](C)NC(=O)[C@H](CC(=O)O)NC(=O)[C@H](CC(=O)O)NC1=O)NC(=O)[C@H](CC(C)(C)C)NC(=O)[C@H](CC(=O)O)NC2=O (stereo partly drawn) [I-830, Ac-PL3-Asp-Npg-B5-Asp-Asp-Ala-Ala-Phe-Asn-PyrS3-3Thi-BztA-Gln-dAla-NH2] | 0.015 | – | – | 0.015 | 2.042 | 38.5 | – | –
5 | CC(=O)N1CCC[C@]12CC=CCCCC1(CCCC=CCCCCOC(=O)N3CC[C@@](C(=O)N[C@@H](Cc4ccsc4)C(=O)N[C@@H](Cc4csc5ccccc45)C(=O)N[C@@H](Cc4c[nH]cn4)C(=O)N[C@H](C)C(N)=O)(C3)NC(=O)[C@H](CC(N)=O)NC(=O)[C@H](Cc3ccccc3)NC(=O)[C@H](C)NC(=O)[C@H](C)NC(=O)[C@H](CC(=O)O)NC(=O)[C@H](CC(=O)O)NC1=O)NC(=O)[C@H](CC(C)(C)C)NC(=O)[C@H](CC(=O)O)NC2=O (stereo partly drawn) [I-832, Ac-PL3-Asp-Npg-B5-Asp-Asp-Ala-Ala-Phe-Asn-PyrS3-3Thi-BztA-His-dAla-NH2] | 0.009 | – | – | 0.009 | 2.095 | 39.8 | – | –
6 | CC(=O)N1CCC[C@]12CC=CCCCC1(CCCC=CCCCCOC(=O)N3CC[C@@](C(=O)N[C@@H](Cc4ccsc4)C(=O)N[C@@H](Cc4csc5ccccc45)C(=O)N[C@@H](CC(N)=O)C(=O)N[C@H](C)C(N)=O)(C3)NC(=O)[C@H](CC(N)=O)NC(=O)[C@H](Cc3ccccc3)NC(=O)[C@H](C)NC(=O)[C@H](C)NC(=O)[C@H](CC(=O)O)NC(=O)[C@H](CC(=O)O)NC1=O)NC(=O)[C@H](CC(C)(C)C)NC(=O)[C@H](CC(=O)O)NC2=O (stereo partly drawn) [I-834, Ac-PL3-Asp-Npg-B5-Asp-Asp-Ala-Ala-Phe-Asn-PyrS3-3Thi-BztA-Asn-dAla-NH2] | 0.014 | – | – | 0.014 | 2.08 | 33.7 | – | –
7 | CC(=O)N1CCC[C@]12CC=CCCCC1(CCCC=CCCCOC(=O)N3CC[C@@](C(=O)N[C@@H](Cc4ccsc4)C(=O)N[C@@H](Cc4csc5ccccc45)C(=O)N[C@@H](CCC(N)=O)C(N)=O)(C3)NC(=O)[C@H](Cc3ccccc3)NC(=O)[C@H](Cc3ccccc3)NC(=O)[C@H](C)NC(=O)[C@H](C)NC(=O)[C@H](CN(CC(=O)O)CC(F)(F)F)NC(=O)[C@H](CC(=O)O)NC1=O)NC(=O)[C@H](CC(C)(C)C)NC(=O)[C@H](CC(=O)O)NC2=O (stereo partly drawn) [I-848, Ac-PL3-Asp-Npg-B5-Asp-TfeGA-Ala-Ala-Phe-Phe-PyrS2-3Thi-BztA-Gln-NH2] | 0.013 | 2.46 | – | – | – | – | 7 | –
8 | CC(=O)N1CCC[C@]12CC=CCCCC1(CCCC=CCCCOC(=O)N3CC[C@@](C(=O)N[C@@H](Cc4ccsc4)C(=O)N[C@@H](Cc4csc5ccccc45)C(=O)N[C@@H](CCC(N)=O)C(N)=O)(C3)NC(=O)[C@H](Cc3ccccc3)NC(=O)[C@H](Cc3ccccc3)NC(=O)[C@H](C)NC(=O)[C@H](C)NC(=O)[C@H](Cc3ccc(C(=O)O)cc3)NC(=O)[C@H](CC(=O)O)NC1=O)NC(=O)[C@H](CC(C)(C)C)NC(=O)[C@H](CC(=O)O)NC2=O (stereo partly drawn) [I-850, Ac-PL3-Asp-Npg-B5-Asp-4COOHF-Ala-Ala-Phe-Phe-PyrS2-3Thi-BztA-Gln-NH2] | 0.026 | 2.26 | – | – | – | – | 16.4 | –
9 | CC(=O)N1CCC[C@]12CC=CCCCC1(CCCC=CCCCOC(=O)N3CC[C@@](C(=O)N[C@@H](Cc4ccsc4)C(=O)N[C@@H](Cc4csc5ccccc45)C(=O)N[C@@H](CCC(N)=O)C(N)=O)(C3)NC(=O)[C@H](CC(C)C)NC(=O)[C@H](Cc3ccccc3)NC(=O)[C@H](C)NC(=O)[C@H](C)NC(=O)[C@H](Cc3ccc(C(=O)O)cc3)NC(=O)[C@H](CC(=O)O)NC1=O)NC(=O)[C@H](CC(C)(C)C)NC(=O)[C@H](CC(=O)O)NC2=O (stereo partly drawn) [I-851, Ac-PL3-Asp-Npg-B5-Asp-4COOHF-Ala-Ala-Phe-Leu-PyrS2-3Thi-BztA-Gln-NH2] | 0.016 | 2.15 | – | – | – | – | 7.6 | –
10 | CC(=O)N1CCC[C@]12CC=CCCCC1(CCCC=CCCCOC(=O)N3CC[C@@](C(=O)N[C@@H](Cc4ccsc4)C(=O)N[C@@H](Cc4csc5ccccc45)C(=O)N[C@@H](CCC(N)=O)C(N)=O)(C3)NC(=O)[C@H](CC(C)C)NC(=O)[C@H](Cc3ccccc3)NC(=O)[C@H](C)NC(=O)[C@H](C)NC(=O)[C@H](Cc3ccccc3C(=O)O)NC(=O)[C@H](CC(=O)O)NC1=O)NC(=O)[C@H](CC(C)(C)C)NC(=O)[C@H](CC(=O)O)NC2=O (stereo partly drawn) [I-854, Ac-PL3-Asp-Npg-B5-Asp-2COOHF-Ala-Ala-Phe-Leu-PyrS2-3Thi-BztA-Gln-NH2] | 0.008 | 2.48 | – | – | – | – | 3.6 | 4.6
11 | CC(=O)N1CCC[C@]12CC=CCCCC1(CCCC=CCCCOC(=O)N3CC[C@@](C(=O)N[C@@H](Cc4ccsc4)C(=O)N[C@@H](Cc4csc5ccccc45)C(=O)N[C@@H](CCC(N)=O)C(N)=O)(C3)NC(=O)[C@H](CC(C)C)NC(=O)[C@H](Cc3ccccc3)NC(=O)[C@H](C)NC(=O)[C@H](C)NC(=O)[C@H](CC(N)=O)NC(=O)[C@H](CC(=O)O)NC1=O)NC(=O)[C@H](CC(C)(C)C)NC(=O)[C@H](CC(=O)O)NC2=O (stereo partly drawn) [I-856, Ac-PL3-Asp-Npg-B5-Asp-Asn-Ala-Ala-Phe-Leu-PyrS2-3Thi-BztA-Gln-NH2] | 0.017 | 2.45 | – | – | – | 6.8 | – | –
12 | CC(=O)N1CCC[C@]12CC=CCCCC1(CCCC=CCCCOC(=O)N3CC[C@@](C(=O)N[C@@H](Cc4ccsc4)C(=O)N[C@@H](Cc4csc5ccccc45)C(N)=O)(C3)NC(=O)[C@H](CC(N)=O)NC(=O)[C@H](Cc3ccccc3)NC(=O)[C@H](C)NC(=O)[C@H](C)NC(=O)[C@H]([C@@H](C)O)NC(=O)[C@H](CC(=O)O)NC1=O)NC(=O)[C@H](CC(C)(C)C)NC(=O)[C@H](CC(=O)O)NC2=O (stereo partly drawn) [I-859, Ac-PL3-Asp-Npg-B5-Asp-Thr-Ala-Ala-Phe-Asn-PyrS2-3Thi-BztA-NH2] | 0.036 | – | – | 0.036 | 2.711 | > 20 | – | –
